Results taken from patent US10836770B2, “Imidazopyridazine compounds useful as modulators of IL-12, IL-23 and/or INF alpha responses” (priority 2016, dated 2020).

Columns and labels:
[1] = target: T1, recombinantly expressed His-tagged protein corresponding to amino acids 575-869 of human Tyk2 (Homo sapiens, UniProt P29597); experiment: Probe displacement assay (scintillation proximity, radiolabeled probe); assay type: binding
T1 construct: made in house
Description: The probe displacement assay is conducted as follows: In a […], test compounds along with recombinantly expressed His-tagged protein corresponding to amino acids 575-869 of human Tyk2 (sequence shown below) at 2.5 nM, 40 nM ((R)—N-(1-(3-(8-methyl-5-(methylamino)-8H-imidazo[4,5-d]thiazolo[5,4-b]pyridin-2-yl)phenyl)ethyl)-2-([^3H]methylsulfonyl)benzamide) (preparation described below) and 80 μg/mL Copper His-Tag scintillation proximity assay beads (Perkin Elmer, Catalog #RPNQ0095) in 50 mM HEPES, pH 7.5, containing 100 μg/mL bovine serum albumin and 5% DMSO were incubated for 30 minutes at room temperature. […] The IC50 value is defined as the concentration of test compound required to inhibit radiolabeled probe binding by 50%.
Protein Sequence of recombinant Hig-tagged Tyk2 (575-869):
The preparation of radiolabeled probe, (R)—N-(1-(3-(8-methyl-5-(methylamino)-8H-imidazo[4,5-d]thiazolo[5,4-b]pyridin-2-yl)phenyl)ethyl)-2-([^3H]methylsulfonyl)benzamide, was performed as described below: […]

[2] = test system: IL-23-stimulated Kit225 T cells with STAT-dependent luciferase reporter; experiment: Kit225 T cell assay, IL-23 stimulated STAT-dependent luciferase reporter; assay type: cell-based, human; settings: Homo sapiens, KIT225, read-out: IL-23 Kit225 Reporter, LE (IC50, uM)
Description: (§1) Kit225 T cells with a stably-integrated STAT-dependent luciferase reporter were plated in RPMI (GIBCO) containing 10% heat-inactivated FBS (GIBCO) and 100 U/mL PenStrep (GIBCO). The cells were then stimulated with either 20 ng/mL human recombinant IL-23 or 200 U/mL human recombinant IFNα (PBL InterferonSource) for 5-6 hours. Luciferase expression was measured using the STEADY-GLO® Luciferase Assay System (PROMEGA®) according to the manufacturer's instructions.

[3] = test system: IFNα-stimulated Kit225 T cells with STAT-dependent luciferase reporter; experiment: Kit225 T cell assay, IFNα stimulated STAT-dependent luciferase reporter; assay type: cell-based, human; settings: Homo sapiens, KIT225, read-out: IFNa Kit225 Reporter, LE (IC50, uM)
Description: as §1

T1 sequence (P29597 with tags, fused parts or gaps): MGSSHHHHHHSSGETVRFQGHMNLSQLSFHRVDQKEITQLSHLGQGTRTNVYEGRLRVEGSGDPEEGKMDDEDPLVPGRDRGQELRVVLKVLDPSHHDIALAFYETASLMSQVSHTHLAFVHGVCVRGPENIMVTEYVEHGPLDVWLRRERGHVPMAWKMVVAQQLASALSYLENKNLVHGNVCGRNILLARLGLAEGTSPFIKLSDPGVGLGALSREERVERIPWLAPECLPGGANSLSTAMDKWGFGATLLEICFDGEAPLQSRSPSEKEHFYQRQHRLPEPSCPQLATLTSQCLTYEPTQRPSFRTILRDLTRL

Structure (SMILES)	EC50 [1] [µM]	IC50 [2] [µM]	IC50 [3] [µM]
CNC(=O)c1nn(C)cc1Nc1cc(NC)c2ncc(C(=O)NC3CC3)n2n1 [Example 1, N-cyclopropyl-6-((1-methyl-3-(methylcarbamoyl)-1H-pyrazol-4-yl)amino)-8-(methylamino)imidazo[1,2-b]pyridazine-3-carboxamide]	0.02	1.32	0.37
CNc1cc(Nc2cn(C)nc2C(=O)Nc2ccccc2)nn2c(C(=O)NC3CC3)cnc12 [Example 2]	0.003	0.94	0.68
CNc1cc(Nc2cn(C)nc2C(=O)Nc2ccccn2)nn2c(C(=O)NC3CC3)cnc12 [Example 4]	0.0076	0.35	0.24
CNc1cc(Nc2cn(C)nc2C(=O)Nc2cccnc2)nn2c(C(=O)NC3CC3)cnc12 [Example 5]	0.01	0.34	0.07
CNc1cc(Nc2cn(C)nc2C(=O)Nc2ccncc2)nn2c(C(=O)NC3CC3)cnc12 [Example 6]	0.00384	0.07	0.19
CNc1cc(Nc2cn(C)nc2C(=O)Nc2cc(C)c(C)nn2)nn2c(C(=O)NC3CC3)cnc12 [Example 7]	0.02	0.32	0.19
CNc1cc(Nc2cn(C)nc2C(=O)Nc2cncnc2)nn2c(C(=O)NC3CC3)cnc12 [Example 8]	0.00767	0.26	0.22
CNc1cc(Nc2cn(C)nc2C(=O)NC(C)C)nn2c(C(=O)NC3CC3)cnc12 [Example 9]	0.03	0.65	0.48
[2H]C([2H])([2H])NC(=O)c1nn(C)cc1Nc1cc(NC)c2ncc(C(=O)NC3CC3)n2n1 [Example 10]	0.03	0.96	0.4
CNc1cc(Nc2cn(C)nc2C(=O)Nc2ccc(OC)nc2)nn2c(C(=O)NC3CC3)cnc12 [Example 11]	0.02	0.52	0.48
CNc1cc(Nc2cn(C)nc2C(=O)Nc2ccc(OC)cc2)nn2c(C(=O)NC3CC3)cnc12 [Example 12]	0.00759	0.12	0.11
CNc1cc(Nc2cn(C)nc2C(=O)Nc2ccc3c(c2)OCO3)nn2c(C(=O)NC3CC3)cnc12 [Example 13]	0.00777	0.33	0.21
CNC(=O)c1nn(C)cc1Nc1cc(NC)c2ncc(C(=O)N[C@@H]3C[C@@H]3F)n2n1 [Example 14]	0.01	0.28	0.25
CNc1cc(Nc2cn(C)nc2C(=O)Nc2ccccc2)nn2c(C(=O)N[C@@H]3C[C@@H]3F)cnc12 [Example 15]	0.00937	0.2	0.11
CNc1cc(Nc2cn(C)nc2C(=O)NC2CC2)nn2c(C(=O)NC3CC3)cnc12 [Example 16]	0.00449	0.25	0.14
CNc1cc(Nc2cn(C)nc2C(=O)NCC(C)C)nn2c(C(=O)NC3CC3)cnc12 [Example 17]	0.04	0.16	0.49
CNc1cc(Nc2cn(C)nc2C(=O)NCCCN(C)C)nn2c(C(=O)NC3CC3)cnc12 [Example 18]	0.05	0.47	0.77
CNc1cc(Nc2cn(C)nc2C(=O)NC2CCC2)nn2c(C(=O)NC3CC3)cnc12 [Example 19]	0.1	0.59	12.5

Structure (SMILES)	EC50 [1] [µM]	IC50 [2] [µM]	IC50 [3] [µM]
CCNC(=O)c1nn(C)cc1Nc1cc(NC)c2ncc(C(=O)NC3CC3)n2n1 [Example 20]	0.03	1.12	0.81
CNc1cc(Nc2cn(C)nc2C(=O)Nc2cccc(F)c2)nn2c(C(=O)NC3CC3)cnc12 [Example 21]	0.05	0.24	0.5
CNc1cc(Nc2cn(C)nc2C(=O)Nc2cccc(C)c2)nn2c(C(=O)NC3CC3)cnc12 [Example 22]	0.02	0.27	0.35
CNc1cc(Nc2cn(C)nc2C(=O)Nc2ccc(F)cc2)nn2c(C(=O)NC3CC3)cnc12 [Example 23]	0.02	0.43	0.81
CNc1cc(Nc2cn(C)nc2C(=O)Nc2ccc3ncsc3c2)nn2c(C(=O)NC3CC3)cnc12 [Example 24]	0.0084	0.28	0.34
CNc1cc(Nc2cn(C)nc2C(=O)Nc2ccccc2F)nn2c(C(=O)NC3CC3)cnc12 [Example 25]	0.00889	0.13	0.19
CNc1cc(Nc2cn(C)nc2C(=O)Nc2ccc(N(C)C)cc2)nn2c(C(=O)NC3CC3)cnc12 [Example 27]	0.0068	0.02	0.16
CCn1cc(Nc2cc(NC)c3ncc(C(=O)NC4CC4)n3n2)c(C(=O)NC)n1 [Example 28, N-cyclopropyl-6-((1-ethyl-3-(methylcarbamoyl)-1H-pyrazol-4-yl)amino)-8-(methylamino)imidazo[1,2-b]pyridazine-3-carboxamide]	0.02	0.21	0.4
CCn1cc(Nc2cc(NC)c3ncc(C(=O)NC4CC4)n3n2)c(C(=O)Nc2cncnc2)n1 [Example 29]	0.1	0.24	1.04
CCn1cc(Nc2cc(NC)c3ncc(C(=O)NC4CC4)n3n2)c(C(=O)Nc2ccccc2)n1 [Example 31]	0.00939	0.72	0.3
CNC(=O)c1n[nH]cc1Nc1cc(NC)c2ncc(C(=O)NC3CC3)n2n1 [Example 32, N-cyclopropyl-6-((3-(methylcarbamoyl)-1H-pyrazol-4-yl)amino)-8-(methylamino)imidazo[1,2-b]pyridazine-3-carboxamide]	0.03	0.83	1.65
CNc1cc(Nc2c[nH]nc2C(=O)Nc2cccnc2)nn2c(C(=O)NC3CC3)cnc12 [Example 33]	0.03	1	5.82
CNc1cc(Nc2c[nH]nc2C(=O)Nc2ccc(OC)nc2)nn2c(C(=O)NC3CC3)cnc12 [Example 34]	0.00247	0.58	0.81
CNC(=O)c1cn(C)nc1Nc1cc(NC)c2ncc(C(=O)NC3CC3)n2n1 [Example 35, N-cyclopropyl-6-((1-methyl-4-(methylcarbamoyl)-1H-pyrazol-3-yl)amino)-8-(methylamino)imidazo[1,2-b]pyridazine-3-carboxamide]	0.00483	1.09	0.47
CNc1cc(Nc2nn(C)cc2C(=O)Nc2ccccc2)nn2c(C(=O)NC3CC3)cnc12 [Example 36]	0.13	3.33	11.9
CNc1cc(Nc2cnn(C)c2C(=O)O)nn2c(C(=O)NC3CC3)cnc12 [Example 37, 4-((3-(cyclopropylcarbamoyl)-8-(methylamino)imidazo[1,2-b]pyridazin-6-yl)amino)-1-methyl-1H-pyrazole-5-carboxylic acid]	0.05	2.34	1.39
CNc1cc(Nc2cnn(C)c2C(=O)Nc2ccccc2)nn2c(C(=O)NC3CC3)cnc12 [Example 38]	0.05	4.46	12.5
CNc1cc(Nc2csnc2C(=O)Nc2ccc(OC)cc2)nn2c(C(=O)NC3CC3)cnc12 [Example 63]	0.00604	–	0.29
